Experimental data taken from paper PMC6627486, “Ipomoeassin F Binds Sec61α to Inhibit Protein Translocation” (Journal of the American Chemical Society, 2019).
Where two headings read alike, the source gives them in different places.

Tests used:
MCF7 = test: MTT cytotoxicity assay, MCF7; assay type: cell-based, human; settings: Homo sapiens, MCF7, 72 h, read-out: Cytotoxicity (IC50)
Method: Two human breast cancer cell lines (MDA-MB-231 and MCF7) and one human breast non-tumorigenic epithelial cell line (MCF-10A) were maintained in a DMEM high glucose culture medium supplemented with 10% fetal bovine serum (FBS) and 2 mM L-glutamine. The cells were grown in a humidified atmosphere of 5% CO2 and 95% air at 37 °C . The culture medi um w as changed every 2–4 days depending on cell density. Cell cultures were passaged once a week using 0.125% trypsin-EDTA to detach the cells from culture flasks/dishes.
The human colorectal cancer cell line HCT116 was maintained in McCoy’s 5A (modified) medium supplemented with 10% fetal bovine serum (FBS). The human embryonic kidney (HEK293T and HEK293 FRT TRex) cell line was maintained in DMEM high glucose culture medium supplemented with 10% fetal bovine serum (FBS).
HepG2 cells were cultured in DMEM supplemented with 10% fetal bovine serum and 2 mM L-glutamine at 37°C under 5% CO2.
Viable cells were counted with a hemocytometer immediately before each experiment. Experiments were done in triplicate. First, 100 μL of MCF7 cells at the density of 50,000 cells/mL were seeded in a 96-well plate (5,000 cells/well), which was incubated at 37 °C and 5% CO2 atmosphere for 24 h. The compounds were dissolved in DMSO (dimethyl sulfoxide) to make drug stocks (10 mM). The stock solutions were diluted with the complete DMEM high glucose culture medium to make a series of gradient fresh working solutions right before each test. Subsequently, the cells were treated with 100 μL of the freshly made gradient working solution in a total volume of 200 μL/well for 72 h. After that, the media were discarded and 200 μL of the fresh complete medium containing 10% of MTT stock solution (5 mg/mL) was added to each well. The plate was then incubated at 37 °C and 5% CO2 for 3 h. Next, 180 μL of the medium was discarded from each well , and 180 μL of DMSO was added to each well to dissol ve formazan crystals. Absorbance of formazan was detected by a microplate reader (BioTek Synergy H1) at 570 nm with 650 nm as the reference wavelength. The percentage of viability compared to the negative control (DMSO-treated cells) was determined . GraphPad Prism 6 software was used to make a plot of %

HEK R66I = test: Alamar Blue viability, HEK293 expressing Sec61α R66I; assay type: cell-based, human; settings: read-out: cell viability IC50
Method: (§1) AlamarBlue Cytotoxicity Assay […]
(§2) Compounds were diluted from a DMSO stock into culture medium as described above. Cells were treated for 96 h, then viability measured with AlamarBlue, detected using the conditions described but with a BMG Fluostar Optima Microplate Reader. The percentage of viability compared to the negative control (DMSO-treated cells) was determined. GraphPad Prism 6 software was used to make a plot of % viability versus sample […]
(§3) HCT116 and HEK293T. Viable cells were counted using an automated cell counter (BioRad TC20) before each experiment. Experiments were performed either in quadruplicate or duplicate sets. First 100µ l of HCT116 or HEK293T cells at a density of 25,000 cells/m l was seeded in black wall, clear bottom, 96-well plates (2500 cells/well) (Viewplate-96 Perkin Elmer). HEK293 FRT Trex cells were seeded in complete medium supplemented to 1 μg/ml Doxycycline to induce expression of Sec61a constructs. Cells were then incubated at 37 °C and 5% CO2 for 24 h. The compounds were dissolved in DMSO to make drug stocks (10 mM). […] Emission of each well at 620 nm was detected by a microplate reader (Perkin Elmer EnSpire) at excitation 580 nm. The percentage of viability compared to the negative control (DMSO -treated cells) was determined. […]

HEK S82P = test: Alamar Blue viability, HEK293 expressing Sec61α S82P; assay type: cell-based, human; settings: read-out: cell viability IC50
Method: as §1, §2, §3

Sec61α = test: Competition with CT7 photo-affinity labeling of Sec61α in sheep rough microsomes; assay type: binding; settings: 10 μM compound, 100 nM CT7, sheep rough microsomes
Method: MDA-MB-231 cells were seeded on fibronectin-coated coverslips at 70% confluency in a 48-well plate and cultured at 37 °C and 5% CO2. After 24 h, culture medium was replaced with fresh medium containing a 20 µM competitor or an equal volume of DMSO vehicle for 30 min at 37 °C and 5% CO2, followed by addition of 0.2 µM (final concentration) fluorescent probe 12. After 1 h incubation at 37 °C and 5% CO2, the coverslips were mounted onto a glass slide with a mounting medium with or without 0.5 µg/ml DAPI.
The fluorescent images were acquired with a confocal microscope (Leica TCS SP5) using 405 nm excitation and 562 nm excitation. For the ER co-localization studies, 1 uM ER-Tracker™ Blue-White DPX was added to the medium after 1 h incubation with probe 12. After 5 min incubation, the coverslips were mounted onto a glass slide and the images were acquired as described above.
CT7 photo-affinity labeling and click chemistry were done as previously described.14 Briefly, SRMs (sheep rough microsomes, isolated as described in reference15) containing 100 nM Sec61 were treated with 10 µM ipomoeassin F/mycolactone or 1% DMSO for 30 min at 0°C, followed by incubation with 100 nM CT7 for 10 min RT. Samples were then photolyzed for 10 min and crosslinked proteins were detected by click chemistry, SDS-PAGE, and in-gel fluorescent scanning (Typhoon Trio, GE Healthcare). […]

Structure (SMILES) | IC50 (MCF7; MTT) [nM] | IC50 (MCF7) [nM] | IC50 (HEK R66I; Homo sapiens, HEK293, 72 h) [nM] | IC50 (HEK S82P; Homo sapiens, HEK293, 72 h) [nM] | competition with CT7 photo-cross-linking to Sec61α (Sec61α) | IC50 (HEK R66I; 72 h) [nM] | IC50 (HEK S82P; 72 h) [nM]
C/C=C(\C)C(=O)O[C@H]1[C@H](OC(=O)/C=C/c2ccc(OCc3cn(CCOCCOCCOCCNC(=O)CCCC[C@@H]4SC[C@@H]5NC(=O)N[C@@H]54)nn3)cc2)[C@@H](O)[C@@H]2O[C@H]3[C@H](O[C@@H](CCCCC)CCCCCCC(=O)CCC(=O)OC[C@H]1O2)O[C@H](C)[C@H](OC(C)=O)[C@@H]3O [compound 5] | 187 |  |  |  |  |  | 
C/C=C(\C)C(=O)O[C@@H]1[C@@H](O)[C@@H]2O[C@H]3[C@H](O[C@@H](CCCCC)CCCCCCC(=O)CCC(=O)OC[C@@H](O2)[C@H]1OC(=O)/C=C/c1ccccc1)O[C@H](C)[C@H](OC(C)=O)[C@@H]3O [ipomoeassin F] |  | 36.4 | > 10000 | > 10000 | similarly potent competition |  | 
CC(=C\C=C\C(C)=C\[C@H](O)[C@@H](O)C[C@H](C)O)/C=C(C)/C=C/C(=O)O[C@H]1CCCC(=O)O[C@@H]([C@@H](C)C/C(C)=C/[C@@H](C)[C@H](O)C[C@@H](C)O)C/C=C(\C)C[C@@H]1C [mycolactone, reference compound] |  |  |  |  | efficiently competes with CT7 | 4620 | 1160
